Source: PubChem BioAssay (NCI)
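Dose response: 5 concentrations. Exposure: 48 h. Format: 96-well plates. Endpoint: linear interpolation; highest concentration if not reached. TGI is the concentration that stops growth completely.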

What was measured:
Assay in all cases: inhibition of tumour cell growth, NCI panel, 48 h
[1] = tested on: M19-MEL melanoma
[2] = tested on: ACHN renal
[3] = tested on: UO-31 renal
[4] = tested on: SF-539 CNS
[5] = tested on: KM12 colon
[6] = tested on: SK-MEL-2 melanoma
[7] = tested on: SNB-78 CNS
[8] = tested on: HL-60(TB) leukemia
[9] = tested on: DMS 273 small cell lung
[10] = tested on: SK-MEL-28 melanoma
[11] = tested on: LXFL 529 NSCLC
[12] = tested on: MDA-MB-435

COc1ccc(S(=O)(=O)N/N=C(\C)CN2C(=O)c3ccccc3C2=O)cc1 was tested, and the TGI [1] was > 100 µM, the TGI [2] was > 100 µM and the TGI [3] was > 100 µM. The TGI [4] was > 100 µM, the TGI [5] was > 100 µM and the TGI [6] was > 100 µM. The TGI [7] was > 100 µM, the TGI [8] was > 100 µM and the TGI [9] was > 100 µM. The TGI [10] was > 100 µM and the TGI [11] was > 100 µM.

Work on COc1cccc2c1C(=O)c1c(O)c3c(c(O)c1C2=O)C[C@@](O)(/C(C)=N\O)C[C@@H]3OC1CC(N)C(O)C(C)O1 (some centres undefined) yielded a TGI [1] of 3.79 µM, a TGI [2] of 10.8 µM and a TGI [3] of 49.2 µM. The TGI [4] was 3.8 µM, the TGI [5] was 15.8 µM and the TGI [6] was 2.48 µM. It also gave a TGI [7] of 8.2 µM, a TGI [8] of 2.14 µM and a TGI [9] of 4.52 µM. For the same compound, the TGI [10] was 3.98 µM and the TGI [11] was 7.11 µM.

With COC(=O)C(=O)C(C#N)c1ccc(Cl)c(Cl)c1 (centres undefined) the TGI [1] was > 100 µM, the TGI [2] was > 100 µM and the TGI [3] was > 100 µM. The TGI [4] was > 100 µM, the TGI [5] was > 100 µM and the TGI [6] was > 100 µM. The TGI [7] was > 100 µM, the TGI [8] was > 100 µM and the TGI [9] was > 100 µM. The TGI [10] was > 100 µM and the TGI [11] was > 100 µM.

With Cc1nn(C)c(=O)c2nn(-c3ccccc3)c(C)c12 the TGI [1] was > 100 µM, the TGI [2] was > 100 µM and the TGI [3] was > 100 µM. The TGI [4] was > 100 µM, the TGI [5] was > 100 µM and the TGI [6] was > 100 µM. The TGI [7] was > 100 µM, the TGI [8] was > 100 µM and the TGI [9] was > 100 µM. The TGI [10] was > 100 µM and the TGI [11] was > 100 µM.

With Cc1ccc([Se][Se]c2ccc(C)cc2)cc1 the TGI [1] was 40.6 µM, the TGI [2] was > 100 µM and the TGI [3] was 49.7 µM. The TGI [4] was > 100 µM, the TGI [5] was > 100 µM and the TGI [6] was > 100 µM. For the same compound, the TGI [7] was 87.6 µM, the TGI [8] was 19.2 µM and the TGI [9] was 32.4 µM. For the same compound, the TGI [10] was 81.3 µM and the TGI [11] was 31.7 µM.

In the case of O=C(CC(=O)c1ccccc1NC1=Cc2ccccc2C(=O)C1=O)C(=O)NC1=C(Cl)C(=O)c2ccccc2C1=O, the TGI [1] is reported as 0.931 µM, the TGI [2] is reported as 10.7 µM and the TGI [3] is reported as 20.4 µM. For the same compound, the TGI [4] was 9.11 µM, the TGI [5] was 15.6 µM and the TGI [6] was 6.6 µM. The TGI [7] was 8.79 µM, the TGI [8] was 3.42 µM and the TGI [9] was 6.8 µM. It also gave a TGI [10] of 3.71 µM, a TGI [11] of 8.6 µM and a TGI [12] of 3.36 µM.

With CN(Cc1ccccc1)C1(N(C)Cc2ccccc2)CC1 the TGI [1] was > 100 µM, the TGI [2] was > 100 µM and the TGI [3] was > 100 µM. For the same compound, the TGI [4] was > 100 µM, the TGI [5] was > 100 µM and the TGI [6] was > 100 µM. The TGI [7] was > 100 µM, the TGI [8] was > 100 µM and the TGI [9] was > 100 µM. The TGI [10] was > 100 µM and the TGI [11] was > 100 µM.

NC(=S)N/N=C(\C(=O)Nc1ccc(Cl)c(Cl)c1)C1=NN(c2ccccc2)C(c2cccc([N+](=O)[O-])c2)CC1=O (centres undefined) was tested, and the TGI [1] was 50.5 µM, the TGI [2] was > 100 µM and the TGI [3] was > 100 µM. For the same compound, the TGI [4] was 50.8 µM, the TGI [5] was > 100 µM and the TGI [6] was > 100 µM. The TGI [7] was > 100 µM, the TGI [8] was > 100 µM and the TGI [9] was 45.2 µM. For the same compound, the TGI [10] was > 100 µM and the TGI [11] was 48.1 µM.

With CC1=C(c2cc(C(=O)Nc3cccc(C(F)(F)F)c3)nc(NC#N)n2)Sc2ccccc2N1 the TGI [1] was > 100 µM, the TGI [2] was > 100 µM and the TGI [3] was > 100 µM. For the same compound, the TGI [4] was > 100 µM, the TGI [5] was > 100 µM and the TGI [6] was > 100 µM. The TGI [7] was > 100 µM, the TGI [8] was > 100 µM and the TGI [9] was > 100 µM. The TGI [10] was > 100 µM and the TGI [11] was > 100 µM.

COc1cc(C(CC(OC)OC)=C(C#N)C#N)cc(OC)c1OC was tested, and the TGI [1] was 33.4 µM, the TGI [2] was > 100 µM and the TGI [3] was > 100 µM. It also gave a TGI [4] of 37.1 µM, a TGI [5] of 60.5 µM and a TGI [6] of 49.4 µM. For the same compound, the TGI [7] was > 100 µM, the TGI [8] was 67.8 µM and the TGI [9] was 27.6 µM. For the same compound, the TGI [10] was > 100 µM and the TGI [11] was > 100 µM.

With COc1ccc(/C=C/C(C(=O)O)C(=O)O)cc1 the TGI [1] was > 100 µM, the TGI [2] was > 100 µM and the TGI [3] was > 100 µM. The TGI [4] was > 100 µM, the TGI [5] was > 100 µM and the TGI [6] was > 100 µM. For the same compound, the TGI [7] was > 100 µM, the TGI [8] was 74.7 µM and the TGI [9] was > 100 µM. For the same compound, the TGI [10] was > 100 µM and the TGI [11] was > 100 µM.

N#Cc1nc(Nc2ccc([N+](=O)[O-])cc2)sc1N was tested, and the TGI [1] was > 100 µM, the TGI [2] was 50.9 µM and the TGI [3] was > 59.7 µM. For the same compound, the TGI [4] was 18.7 µM, the TGI [5] was > 100 µM and the TGI [6] was 53.2 µM. The TGI [7] was > 93 µM, the TGI [8] was > 29.8 µM and the TGI [9] was > 100 µM. The TGI [10] was > 74.3 µM and the TGI [11] was > 100 µM.

Cc1ccc(N(C(=O)CC(=O)N2N=C(c3ccccc3)C(N=Nc3ccc([N+](=O)[O-])cc3)C2=O)C(=O)c2ccc(Cl)cc2)cc1 (centres undefined) was tested, and the TGI [1] was > 53.9 µM, the TGI [2] was > 100 µM and the TGI [3] was > 100 µM. For the same compound, the TGI [4] was 35.6 µM, the TGI [5] was > 78.9 µM and the TGI [6] was > 62.4 µM. The TGI [7] was > 100 µM, the TGI [8] was > 56.5 µM and the TGI [9] was 20.3 µM. The TGI [10] was > 100 µM and the TGI [11] was > 52.9 µM.
